Measured values published in US20230287051A1, “INHIBITORS OF COMPLEMENT FACTOR C3 AND THEIR MEDICAL USES” (ZP SPV 3 K/S, priority 2020, published 2023).
Numbered stars: 1 amine (or outer) side, 2 acyl side, 3 side chain; on linkers, the order of the positions; unused ones are H or OH. Bridge positions count the residues as written; N and C are the ends. Square brackets hold non-standard residues; d marks the D form. Side chains are listed from the residue outwards. Peptide text beside a SMILES is read from it. * marks the point of attachment. Trp(1-Me) = Cn1cc(C[C@H](N)C(=O)O)c2ccccc21; C18 diacid = O=C(O)CCCCCCCCCCCCCCCCC(=O)*; γGlu = O=C(O)[C@H](CCC(=O)[*:2])N[*:1]; AEEA = NCCOCCOCC(=O)O; CH2 = C([*:1])[*:2]; Sar = CNCC(=O)O

B1: Compound 19 (peptide)
peptide: EGSEFCIWQDWGEHRCTEGE
modifications: N-terminal [15-Carboxy-pentadecanoyl]; 1-Me-Trp at 8; Cys6 and Cys16 bridged by methylene thioacetal (-S-CH2-S-); Sar at 12; C-terminal amide
notes: Synthetic compstatin analogue; also called Comp No 19
B2: Compound 29 (peptide)
peptide: H-ESGVFCI[Trp(1-Me)]QDW[Sar]EHRCTEGE[AEEA][AEEA]K([γGlu-Gly-γGlu-C18 diacid])-NH2
modifications: bridge 6-16 via methylene thioacetal (-S-CH2-S-)
notes: Synthetic compstatin analogue; also called Comp No 29
B3: Compound 10 (peptide)
peptide: Ac-SEFCI[Trp(1-Me)]QDW[Sar]EHRCTE[AEEA][AEEA]K([γGlu-Gly-γGlu-C18 diacid])-NH2
modifications: bridge 4-14 via methylene thioacetal (-S-CH2-S-)
notes: Synthetic compstatin analogue; also called Comp No 10
B4: Compound 20 (peptide)
peptide: Ac-EGSEFCI[Trp(1-Me)]QDW[Sar]EHRCTEGE[AEEA]ESK([γGlu-C18 diacid])-NH2
modifications: bridge 6-16 via methylene thioacetal (-S-CH2-S-)
notes: Synthetic compstatin analogue; also called Comp No 20
B5: Compound 28 (peptide)
peptide: Ac-GQSAFCI[Trp(1-Me)]QDW[Sar]EHRCTEGE[AEEA][AEEA]K([γGlu-Gly-γGlu-C18 diacid])-NH2
modifications: bridge 6-16 via methylene thioacetal (-S-CH2-S-)
notes: Synthetic compstatin analogue; also called Comp No 28
B6: Compound 27 (peptide)
peptide: Ac-EGESGFCI[Trp(1-Me)]QDW[Sar]EHRCTEGE[AEEA][AEEA]K([γGlu-Gly-γGlu-C18 diacid])-NH2
modifications: bridge 7-17 via methylene thioacetal (-S-CH2-S-)
notes: Synthetic compstatin analogue; also called Comp No 27
B7: Compound 9 (peptide)
peptide: Ac-SEFCI[Trp(1-Me)]QDW[Sar]EHRCTEGE[AEEA][AEEA]K([γGlu-Gly-γGlu-C18 diacid])-NH2
modifications: bridge 4-14 via methylene thioacetal ‑S‑CH2‑S‑ (CH2I2, DIPEA)
notes: Synthetic compstatin analogue; also called Comp No 9

target: Human C3 (Complement tech cat #A113c) (human, UniProt P01024 23-1663); assay: cell-based or functional assay; settings: not given
Sequence (P01024 23-1663 limits assumed): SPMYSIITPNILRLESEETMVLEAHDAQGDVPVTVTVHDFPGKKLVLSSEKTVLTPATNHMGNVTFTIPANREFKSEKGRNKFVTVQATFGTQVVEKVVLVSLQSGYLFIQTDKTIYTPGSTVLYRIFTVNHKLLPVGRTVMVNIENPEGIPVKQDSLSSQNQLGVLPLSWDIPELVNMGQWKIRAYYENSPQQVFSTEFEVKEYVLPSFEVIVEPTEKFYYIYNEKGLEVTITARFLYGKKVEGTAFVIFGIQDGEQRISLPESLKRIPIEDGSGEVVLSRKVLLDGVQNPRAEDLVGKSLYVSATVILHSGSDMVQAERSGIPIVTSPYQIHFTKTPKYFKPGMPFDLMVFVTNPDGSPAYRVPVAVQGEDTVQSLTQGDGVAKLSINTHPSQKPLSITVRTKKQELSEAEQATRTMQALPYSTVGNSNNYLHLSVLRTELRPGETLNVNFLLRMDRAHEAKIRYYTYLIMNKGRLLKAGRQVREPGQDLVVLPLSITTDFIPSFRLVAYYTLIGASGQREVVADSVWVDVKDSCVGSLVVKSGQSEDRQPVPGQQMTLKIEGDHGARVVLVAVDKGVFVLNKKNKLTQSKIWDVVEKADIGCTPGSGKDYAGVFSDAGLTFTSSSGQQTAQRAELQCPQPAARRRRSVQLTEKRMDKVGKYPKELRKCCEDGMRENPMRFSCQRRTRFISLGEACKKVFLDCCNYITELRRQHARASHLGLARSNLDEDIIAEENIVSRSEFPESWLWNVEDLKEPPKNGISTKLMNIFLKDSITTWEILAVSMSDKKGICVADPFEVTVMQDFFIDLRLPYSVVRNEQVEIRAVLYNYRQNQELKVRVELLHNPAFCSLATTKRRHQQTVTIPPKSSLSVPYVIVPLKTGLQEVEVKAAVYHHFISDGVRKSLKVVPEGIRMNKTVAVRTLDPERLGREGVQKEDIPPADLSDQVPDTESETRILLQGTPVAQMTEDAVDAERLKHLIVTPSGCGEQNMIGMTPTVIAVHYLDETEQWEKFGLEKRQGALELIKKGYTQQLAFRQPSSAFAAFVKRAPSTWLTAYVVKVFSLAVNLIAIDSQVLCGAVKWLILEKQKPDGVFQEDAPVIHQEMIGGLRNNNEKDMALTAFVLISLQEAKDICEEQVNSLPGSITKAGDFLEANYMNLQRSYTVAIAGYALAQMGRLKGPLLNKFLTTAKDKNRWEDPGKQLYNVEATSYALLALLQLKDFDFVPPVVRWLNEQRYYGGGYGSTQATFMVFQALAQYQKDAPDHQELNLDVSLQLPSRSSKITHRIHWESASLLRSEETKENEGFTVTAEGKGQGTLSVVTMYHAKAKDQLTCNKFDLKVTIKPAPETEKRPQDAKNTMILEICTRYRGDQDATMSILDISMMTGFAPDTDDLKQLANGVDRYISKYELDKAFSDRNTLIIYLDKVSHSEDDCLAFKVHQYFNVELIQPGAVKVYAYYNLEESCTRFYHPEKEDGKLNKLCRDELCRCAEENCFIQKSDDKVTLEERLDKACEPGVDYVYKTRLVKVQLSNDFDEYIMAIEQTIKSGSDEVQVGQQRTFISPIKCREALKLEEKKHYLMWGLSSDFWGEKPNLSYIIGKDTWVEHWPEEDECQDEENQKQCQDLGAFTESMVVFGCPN

Row | Molecule | IC50 [nM], in vitro inhibition of hemolysis (classical complement pathway; human serum, sensitized sheep RBC) [nM]
1 | B1 | < 250
2 | B2 | < 100
3 | B3 | < 250
4 | B4 | < 250
5 | B5 | < 100
6 | B6 | < 100
7 | B7 | < 250

system: classical complement pathway; assay: In vitro haemolysis assay (inhibition of classical complement pathway); type: cell-based; settings: human serum, sensitized sheep RBC, 30 minutes at 37° C., absorbance at 405 nm, n=>2; read-out: IC50, inhibition of hemolysis
Method: The in vitro effect of some of the compounds described herein was assessed by measuring their inhibitory effect of the classical complement pathway in a haemolysis assay.
Briefly, compounds described herein and reference compounds were dissolved in DMSO and diluted in Tris/Casein Assay Buffer (10 mM Tris, 145 mM NaCl, 0.5 mM MgCl2, 0.15 mM CaCl2, and 0.1% W/V casein, adjusted to pH 7.4) as 9-point serial dilutions in a 96-well plate. Sensitized sheep red blood cells (RBC) coated with rabbit anti-sheep erythrocyte antiserum (Complement Technology, Inc., TX, USA) were washed in Tris/asein Assay Buffer. 50 μL from each well of diluted compound was added to a 96-well plate containing 50 μL diluted human serum (Complement Technology, Inc., TX, USA) and incubated for 15 minutes at room temperature. The serum dilution factor was optimized for every serum batch to obtain 70-90% of maximal haemolysis using the protocol. Then 50 μL sensitized sheep RBCs were added to all wells ([…]).
After 30 minutes of incubation at 37° C. with gentle agitation, the reaction was stopped by addition of 50 μL Tris STOP Buffer per well (10 mM EDTA, 10 mM Tris, 145 mM NaCl adjusted to pH 7.4). The RBCs were then removed by centrifugation and the resulting supernatant measured for hemolysis by absorbance at 405 nm.
The response was normalized relative to a positive and negative control (vehicle) to calculate the IC50 (nM) from the concentration response curve using the 4-parameter logistic (4PL) nonlinear model for curve fitting (Table 2). All values are based on n=>2 independent determinations.

Row | Molecule | IC50 [nM]
8 | CC[C@H](C)[C@@H]1NC(=O)[C@@H](NC(=O)[C@H](Cc2ccccc2)NC(=O)[C@H](CCC(=O)O)NC(=O)[C@H](CCC(N)=O)NC(=O)[C@H](CCCCN)NC(=O)[C@H](CO)NC(C)=O)CSCSC[C@@H](C(=O)N[C@H](C(=O)N[C@@H](CCC(=O)O)C(=O)NCC(=O)N[C@@H](CCC(=O)O)C(=O)NCCOCCOCC(=O)NCCOCCOCC(=O)N[C@@H](CCCCNC(=O)CC[C@H](NC(=O)CNC(=O)CC[C@H](NC(=O)CCCCCCCCCCCCCCCCC(=O)O)C(=O)O)C(=O)O)C(N)=O)[C@@H](C)O)NC(=O)[C@H](CCCNC(=N)N)NC(=O)[C@H](Cc2c[nH]cn2)NC(=O)[C@H](CCC(=O)O)NC(=O)CN(C)C(=O)[C@H](Cc2c[nH]c3ccccc23)NC(=O)[C@H](CC(=O)O)NC(=O)[C@H](CCC(N)=O)NC(=O)[C@H](Cc2cn(C)c3ccccc23)NC1=O [Compound 26, Ac-SKQEF[C(1)]I[1-Me-Trp]QDW[Sar]EHR[C(1)]TEGE[Peg3][Peg3]-K([17-Carboxy-heptadecanoyl][yGlu]G[yGlu])-NH2] (Ac-SKQEFCI[Trp(1-Me)]QDW[Sar]EHRCTEGE[AEEA][AEEA]K([γGlu-Gly-γGlu-C18 diacid])-NH2; linker 6-16 via CH2) | < 100
9 | CC[C@H](C)[C@H](NC(=O)[C@H](N)Cc1ccc(O)cc1)C(=O)N[C@H]1CSSC[C@@H](C(=O)N(C)[C@H](C(N)=O)[C@@H](C)CC)NC(=O)[C@H](CCCNC(=N)N)NC(=O)[C@H](Cc2c[nH]cn2)NC(=O)[C@H](C)NC(=O)CN(C)C(=O)[C@H](Cc2c[nH]c3ccccc23)NC(=O)[C@H](CC(=O)O)NC(=O)[C@H](CCC(N)=O)NC(=O)[C@H](Cc2cn(C)c3ccccc23)NC(=O)[C@H](C(C)C)NC1=O [Cp40, H-{d}YIC(*)V[1-Me-Trp]QDW[SarJAHRC(*)[N-Me-Ile]-NH2, reference compound] | < 100
10 | Ac-EGSAY[C(1)]I[1-Me-Trp]QDWGEHR[C(1)][Sar]EK[yGlu]-K([17-Carboxy-heptadecanoyl][yGlu][Peg3][Peg3])-NH2 [Compound 3] | < 500
11 | Ac-EQEVF[C(1)]I[1-Me-Trp]QDW[Sar]EHR[C(1)]TEGE[Peg3][Peg3]-K([17-Carboxy-heptadecanoyl][yGlu]G[yGlu])-NH2 [Compound 22] | < 100
12 | Ac-GEF[C(1)]I[1-Me-Trp]QDWGEHR[C(1)][Sar]EAE[Peg3][Peg3]-K([17-Carboxy-heptadecanoyl][yGlu]G[yGlu])-NH2 [Compound 6] | < 500
13 | Ac-KSGEF[C(1)]I[1-Me-Trp]QDW[Sar]EHR[C(1)]TEGE[Peg3][Peg3]-K([17-Carboxy-heptadecanoyl][yGlu]G[yGlu])-NH2 [Compound 21] | < 100
14 | Ac-SEFC(2)I[1-Me-Trp]QDWGEHRC(2)TGAES-NH2 [Compound 31] | < 250
15 | Ac-SEF[C(1)]IWQDW[Sar]EHR[C(1)]TEGE[Peg3]ES-K([17-Carboxy-heptadecanoyl][yGlu])-NH2 [Compound 16] | < 1000
16 | Ac-SEF[C(1)]IYQDW[Sar]EHR[C(1)]TEGE[Peg3]ES-K([17-Carboxy-heptadecanoy!][yGlu])-NH2 [Compound 17] | < 500
17 | Ac-SEF[C(1)]I[1-Me-Trp]QDWGEHR[C(1)]TEGE[Peg3]ES-K([17-Carboxy-heptadecanoyl]-[yGlu]-NH2 [Compound 5] | < 500
18 | Ac-SEF[C(1)]I[1-Me-Trp]QDWGEHR[C(1)]TGAES[Peg3][Peg3]-K([17-Carboxy-heptadecanoyl][yGlu]G[yGlu])-NH2 [Compound 14] | < 250
19 | Ac-SEF[C(1)]I[1-Me-Trp]QDWGEHR[C(1)][Sar]EGA-K([17-Carboxy-heptadecanoyl]-[yGlu]G[Peg3][yGlu][Peg3]-NH2 [Compound 4] | < 500
20 | Ac-SEF[C(1)]I[1-Me-Trp]QDW[SarJAHR[C(1)]TEGE[Peg3]ES-K([17-Carboxy-heptadecanoyl][yGlu])-NH2 [Compound 13] | < 250
21 | Ac-SEF[C(1)]I[1-Me-Trp]QDW[Sar]EHR[C(1)][Sar]E[Peg3][Peg3]-K([17-Carboxy-heptadecanoyl]-[yGlu]G[yGlu]-NH2 [Compound 8] | < 500
22 | Ac-SEF[C(1)]I[[1-Me-Trp]QDW[Sar]EHR[C(1)]TEGE[Peg3]ES-K([17-Carboxy-heptadecanoyl][yGlu])-NH2 [Compound 11] | < 250
23 | Ac-SEY[C(1)]I[1-Me-Trp]QDW[Sar]EHR[C(1)]TEGE[Peg3]ES-K([17-Carboxy-heptadecanoyl][yGlu])-NH2 [Compound 18] | < 250
24 | Ac-YEQAF[C(1)]I[1-Me-Trp]QDW[Sar]EHR[C(1)]TEGE[Peg3]ES-K([17-Carboxy-heptadecanoyl][yGlu]G[yGlu])-NH2 [Compound 30] | < 100
